Assay results: patent US20130136772A1, “REGULATION OF IMMUNE RESPONSE BY COLOCYNTHIN AND/OR ITS DERIVATIVES” (priority 2010, published 2013)
Values joined by “and” are separate entries in the source; they are usually repeats but may differ in a detail not shown here. Equal values may be shown once.

Assays:
[1] = system: cell mediated immune response (DTH); assay: SRBC induced delayed type hypersensitivity (DTH) response; format: in vivo, mice; details: for FOOT PAD THICKNESS Mean ± SE: 24 h after SRBC challenge
Description: Test material was administered 2 h after immunization of mice by 200 μl of 5×10^9 SRBCs/ml. On 7th day, the thickness of the left hind foot was measured with spheromicrometer (0.01 mm pitch) and was considered as control. These mice were then challenged by injecting the 20 μl of 5×10^9 SRBCs/ml intradermally into the left hind footpad. The footpad thickness was measured again at 24 h after challenge (Doherty, 1981).

CD8+ T cells = assay: Lymphocyte immunophenotyping, CD8+ T cell population in SRBC immunised mice; format: in vivo, Swiss albino mice; details: graded doses; most significant suppression at 5 and 10 mg/kg vs sensitized control
Description: Immunophenotyping focuses on lymphocyte populations involved in acquired immunity. Specific molecules present on the cell surface defines characteristics of lymphocytes such as state of activation or functional capabilities. Murine monoclonal antibodies conjugated to a fluorochrome and directed against co-receptors CD4 and CD8 were used in a multi parametric flowcytometric assay to quantify the lymphocyte subsets associated with the cell-mediated immune response.
Estimation of T cell surface markers: On day 0, mice were immunized by injecting 200 μl of 5×10^9 SRBC/ml intraperitonially. Drug administration was carried out for 6 days including the day of immunization. Same amount of SRBC was used to challenge the animals on day 7. After 24 h of challenge, blood was taken from retro-orbital plexus of animals for estimation of CD4^+ and CD8^+ T cells. 100 μl of whole blood was taken in each tube and FITC (fluorescein isothiocyanate) labelled CD4+ and PE (phycoerythrin) labelled CD8+ monoclonal antibodies were added and mixed gently. Tubes were incubated in the dark for 30 min. at room temperature. Subsequently, 2 ml of 1× FACS lysing solution was added at room temperature with gentle mixing. Samples were again incubated at room temperature for 10 min. […]

IL-4 = assay: Intracellular IL-4 expression in SRBC immunised mice; format: in vivo, Swiss albino mice; details: graded doses; significantly inhibited at 2.5, 5 and 10 mg/kg
Description: (§1) Estimation of intracellular cytokines: The animals were immunized as mentioned above. After 6 days of drug administration, the animals were challenged on day 7. After 48 h of challenge, the blood was collected in the tubes containing EDTA (anti-coagulant) from retro-orbital plexes of animals to determine the effect of test material on the expression of intracellular IL-2 and IFN-γ (Th1) and IL-4 (Th2) cytokines. In this study, PE labeled IL-2 monoclonal antibody was used in one set and PE labeled IFN-γ and FITC labelled IL-4 monoclonal antibody was used in the other set of experimentation (FIG. 7, 8, 9).

IFN-γ = assay: Intracellular IFN-γ expression in SRBC immunised mice; format: in vivo, Swiss albino mice; details: graded doses; inhibition observed at 5 and 10 mg/kg p.o.
Description: as §1

skin allograft rejection = assay: Skin allograft rejection time; format: in vivo, mice
Description: The modified method of Billingham and Medawar (1951) [[…]] was followed to study the skin allograft rejection time in mice. Graded doses of test material AD-B-63B were administered to the animals for 7 days and graft rejection time (GRT) was recorded by daily observation of epithelial skin layer survival. […] The basic mechanism involved in increase in graft rejection time is the suppression of T lymphocytes. After transplantation, MHC peptide complexes of the foreign organ are recognized by CD4+ and CD8+ T cells of the recipient as non-self antigens. These T cells differentiate into effector T cells and stimulate an immune response. After T cells differentiate and migrate to the site, macrophages and other inflammatory agents are mediated to the site. Cytotoxic T cells (CD8+) lyse the endothelial cells on the graft, CD4+ Th1 activate macrophages and CD4+ Th2 aid in antibody production.

leucocyte migration = assay: In vivo leucocyte migration (carrageenan induced pleurisy); set-up: species or system mice; details: for EXUDATE VOLUME Mean ± S.E.: 1 h before and 6 h after carrageenan, pleural exudate at 24 h
Description: Mice were injected with 0.2 ml of carrageenan (1% w/v) solution in sterilised normal saline into the pleural cavity by the modified method of Meacock and Kitchen, 1979 [Meacock S C R, Kitchen E A, (1979). Effect of non-steroidal antiinflammatory drug benoxaprofen on leukocyte migration. Journal of Pharmacy & Pharmacology; 31: 366-370]. The test drug was administered orally 1 h before and 6 h after the injection. After 24 h of carrageenan injection the pleural exudate was collected, volume measured and the total leucocyte count of the pleural fluid was determined (Table 3). Flowcytometry as a tool for evaluation of neutrophils is particularly useful because of their larger size than monocytes and lymphocytes when analysed on the forward scatter [FSc]. The percentage of these can be analysed by selectively ‘gating’ the neutrophils without physical separation of the cells (FIG. 4).

[2] = graded oral doses, highly significant effect at 10 mg/kg oral dose

For `CC(=O)OC(C)(C)/C=C/C(=O)[C@](C)(O)[C@H]1[C@H](O)C[C@@]2(C)[C@@H]3CC=C4[C@@H](C=C(O[C@@H]5O[C@H](CO)[C@@H](O)[C@H](O)[C@H]5O)C(=O)C4(C)C)[C@]3(C)C(=O)C[C@]12C` [AD-B-63B, 2-O-β-D-glucopyranosyl cucurbitacin E], the “PERCENT INHIBITION (DTH response)” value ([1]; 1 mg/kg p.o.) was 15.21↓ %, the “FOOT PAD THICKNESS Mean ± SE” value ([1]; 1 mg/kg p.o.) was 0.78 ± 0.01 mm and the “PERCENT INHIBITION (DTH response)” value ([1]; 5 mg/kg p.o.) was 28.26↓ %. For the same compound, the “FOOT PAD THICKNESS Mean ± SE” value ([1]; 5 mg/kg p.o.) was 0.66 ± 0.01 mm, the “PERCENT INHIBITION (DTH response)” value ([1]; 10 mg/kg p.o.) was 29.35↓ % and the “FOOT PAD THICKNESS Mean ± SE” value ([1]; 10 mg/kg p.o.) was 0.65 ± 0.02 mm. The “SRBC induced DTH reaction” value ([1]; orally administered, graded doses) was “dose dependent decrease”, the “percentage of CD8+ T-cell population” value (CD8+ T cells) was “decrease” and the “expression of intracellular IL-4” value (IL-4) was “decrease”. The “expression of IFN-γ” value (IFN-γ) was “decrease”, the “GRAFT REJECTION (Percent), delayed” value (skin allograft rejection; 1 mg/kg p.o.) was 16.30% and 16.30↓ % and the “REJECTION TIME Mean ± S.E.” value (skin allograft rejection; 1 mg/kg p.o. for 7 days) was 15.12 ± 0.11 days. The “GRAFT REJECTION (Percent), delayed” value (skin allograft rejection; 5 mg/kg p.o.) was 29.23% and 29.23↓ %, the “REJECTION TIME Mean ± S.E.” value (skin allograft rejection; 5 mg/kg p.o. for 7 days) was 16.80 ± 0.22 days and the “GRAFT REJECTION (Percent), delayed” value (skin allograft rejection; 10 mg/kg p.o.) was 31.84% and 31.84↓ %. The “REJECTION TIME Mean ± S.E.” value (skin allograft rejection; 10 mg/kg p.o. for 7 days) was 17.14 ± 0.23 days, the “% inhibition of exudate volume” value (leucocyte migration; 1 mg/kg p.o.) was “(22.72%↓)” and the “% inhibition of total leucocyte count” value (leucocyte migration; 1 mg/kg p.o.) was “(12.12%↓)”. For the same compound, the “EXUDATE VOLUME Mean ± S.E.” value (leucocyte migration; 1 mg/kg p.o.) was 0.85 ± 0.10 mL, the “% inhibition of exudate volume” value (leucocyte migration; 5 mg/kg p.o.) was “(38.18%↓)” and the “% inhibition of total leucocyte count” value (leucocyte migration; 5 mg/kg p.o.) was “(23.52%↓)”. The “EXUDATE VOLUME Mean ± S.E.” value (leucocyte migration; 5 mg/kg p.o.) was 0.68 ± 0.18 mL, the “% inhibition of exudate volume” value (leucocyte migration; 10 mg/kg p.o.) was “(44.54%↓)” and the “% inhibition of total leucocyte count” value (leucocyte migration; 10 mg/kg p.o.) was “(24.39%↓)”. The “EXUDATE VOLUME Mean ± S.E.” value (leucocyte migration; 10 mg/kg p.o.) was 0.61 ± 0.10 mL, the “exudates volume against control” value (leucocyte migration; [2]) was “dose dependent inhibition” and the “total leucocytes count against control” value (leucocyte migration; [2]) was “dose dependent inhibition”.
